# From patent US5688798A, “Pyrimidine compounds” (Hoffmann-La Roche Inc., priority 1995, dated 1997)
# Target: T1, dopamine D4 receptor (Homo sapiens, UniProt P21917)
# T1 construct: expressed in transfected cells; host or cells: CHO (Chinese Hamster Ovary) cells, D4-CHO, crude membranes
# T1 sequence (P21917 1-419): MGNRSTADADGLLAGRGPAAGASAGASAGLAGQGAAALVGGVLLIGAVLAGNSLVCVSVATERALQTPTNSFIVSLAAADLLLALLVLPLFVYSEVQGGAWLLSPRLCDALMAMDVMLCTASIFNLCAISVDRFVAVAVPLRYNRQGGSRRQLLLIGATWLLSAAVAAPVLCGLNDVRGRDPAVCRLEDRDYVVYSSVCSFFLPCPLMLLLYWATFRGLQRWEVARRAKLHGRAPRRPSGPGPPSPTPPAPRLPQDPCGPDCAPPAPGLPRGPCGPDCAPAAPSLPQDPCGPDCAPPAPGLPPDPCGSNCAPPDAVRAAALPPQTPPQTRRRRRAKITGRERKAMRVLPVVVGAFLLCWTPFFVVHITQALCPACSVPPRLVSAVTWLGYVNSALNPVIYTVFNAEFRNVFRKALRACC
# Test: binding behaviour at the dopamine D4 receptor, [3H]-spiperone displacement in D4-CHO cell membranes
# Details: not given
# Procedure: The compounds were characterized by their binding behaviour at the D4 receptor.
# CHO cells (Chinese Hamster Ovary) were used in the test. Crude membranes were isolated by ultracentrifugation from D4 -CHO and D2 -CHO cells and were stored at -80° C. After thawing and homogenizing in a buffer solution (50 mM Tris, 1 mM EDTA, 5 mM KCl, 1.5 mM CaCl2, 4 mM MgCl2, pH 7.4) they were incubated at room temperature for 90 minutes with 200 pM [3H]-spiperone and an increasing concentration (1×10^-11 M to 1×10^-4 M) of the test compound. A non-specific binding was established by incubating in the presence of 1×10^-5 M (+)-butaclamol. The unbound radioligand was removed by filtration through a GF/C glass filter and the bound radioactivity was determined by scintillation in a Packard TopCount.
# It was determined using :^3 H-spiperone. The calculation of the value was effected with ligand.
row,SMILES,Ki
1,"Cc1ncc(CN2CC=C(c3ccccc3)CC2)c(N)n1 [Example 14, 5-(4-Phenyl-3,6-dihydro-2H-pyridin-1-ylmethyl)-2-methyl-pyrimidin-4-ylamine]",8.3 nM
2,"Cc1ncc(CN2CC=C(c3ccc(F)cc3)CC2)c(N)n1 [Example 15, 5-[4-(4-Fluoro-phenyl)-3,6-dihydro-2H-pyridin-1-ylmethyl]-2-methyl-pyrimidin-4-ylamine]",9.3 nM
3,"Cc1ncc(CN2CC=C(c3ccc(Cl)cc3)CC2)c(N)n1 [Example 16, 5-[4-(4-chloro-phenyl)-3,6-dihydro-2H-pyridin-1-ylmethyl]-2-methyl-pyrimidin-4-ylamine]",4.7 nM
4,"COc1ccc(C2=CCN(Cc3cnc(C)nc3N)CC2)cc1 [Example 17, 5-[4-(4-Methoxy-phenyl)-3,6-dihydro-2H-pyridin-1-ylmethyl]-2-methyl-pyrimidin-4-ylamine]",5.4 nM
5,"Cc1ncc(CN2CCC3=C(CCCC3)C2)c(N)n1 [Example 24, 5-(3,4,5,6,7,8-Hexahydro-1H-isoquinolin-2-ylmethyl)-2-methyl-pyrimidin-4-ylamine]",7.8 nM
6,"Nc1ncc(CN2CC=C(c3ccccc3)CC2)c(N)n1 [Example 42, 5-(4-Phenyl-3,6-dihydro-2H-pyridin-1-ylmethyl)-pyrimidine-2,4-diamine]",14 nM

# Same assay, conditions: [3H]-spiperone 200 pM; crude membranes of D4-CHO cells; room temperature, 90 minutes, pH 7.4; non-specific binding with 1×10^-5 M (+)-butaclamol; read-out: Affinity to dopamine D4 receptors, Ki
row,SMILES,Ki
1,"Cc1ncc(CN2CCN(c3ccc(Cl)cc3)CC2)c(N)n1 [Example 3, 5-[4-(4-Chloro-phenyl)-piperazin-1-ylmethyl]-2-methyl-pyrimidin-4-ylamine]",33 nM
2,"Cc1ncc(CN2CCN(c3cccc(Cl)c3)CC2)c(N)n1 [Example 7, 5-[4-(3-chloro-phenyl)-piperazin-1-ylmethyl]-2-methyl-pyrimidin-4-ylamine]",28 nM

# Results, then the compound that gave them:
row,Ki,SMILES
1,0.4 nM,"Cc1ncc(CN2CCc3cc(-c4ccccc4)ccc3C2)c(N)n1 [Example 19, 2-Methyl-5-(6-phenyl-3,4-dihydro-1H-isoquinolin-2-ylmethyl)-pyrimidin-4-ylamine]"
2,6.2 nM,"Cc1ncc(CN2CCc3ccc(-c4ccccc4)cc3C2)c(N)n1 [Example 21, 2-Methyl-5-(7-phenyl-3,4-dihydro-1H-isoquinolin-2-ylmethyl)-pyrimidin-4-ylamine]"
3,23 nM,"Cc1ncc(CN2CCc3ccc(OCc4ccccc4)cc3C2)c(N)n1 [Example 22, 5-(7-benzyloxy-3,4-dihydro-1H-isoquinolin-2-ylmethyl)-2-methyl-pyrimidin-4-ylamine]"
4,1.3 nM,"Cc1ncc(CN2CC=C(CCc3ccccc3)CC2)c(N)n1 [Example 28, 2-Methyl-5-(4-phenethyl-3,6-dihydro-2H-pyridin-1-ylmethyl)-pyrimidin-4-ylamine]"
5,0.9 nM,"Cc1ncc(CN2CC=C(/C=C/c3ccccc3)CC2)c(N)n1 [Example 29, (E)-2-Methyl-5-(4-styryl-3,6-dihydro-2H-pyridin-1-ylmethyl)-pyrimidin-4-ylamine]"
6,14 nM,"CCCc1ncc(CN2CCN(c3ccccc3OC)CC2)c(N)n1 [Example 33, 5-[4-(2-Methoxy-phenyl)-piperazin-1-ylmethyl]-2-propyl-pyrimidin-4-ylamine]"
7,30 nM,"COc1ccccc1N1CCN(Cc2cnc(N)nc2N)CC1 [Example 41, 5-[4-(2-Methoxy-phenyl)-piperazin-1-ylmethyl]-pyrimidine-2,4-diamine]"
